Values joined by “and” are separate entries in the source; they are usually repeats but may differ in a detail not shown here. Identical values can stand only once.
What was measured:
Assay type in all cases: biochemical
mAC3 = biological target: T1, mAC3 (Homo sapiens, UniProt O60266); assay: AC assay, Gsα-stimulated mAC3 in membranes from transfected HEK293 cells; conditions: mAC3
T1 construct: Human mAC genes were from GenScript and fitted with a C-terminal FLAG-tag; FLAG (C); made in house; host or cells: HEK293, permanently transfected; membrane preparation
T1 sequence (O60266 whole entry): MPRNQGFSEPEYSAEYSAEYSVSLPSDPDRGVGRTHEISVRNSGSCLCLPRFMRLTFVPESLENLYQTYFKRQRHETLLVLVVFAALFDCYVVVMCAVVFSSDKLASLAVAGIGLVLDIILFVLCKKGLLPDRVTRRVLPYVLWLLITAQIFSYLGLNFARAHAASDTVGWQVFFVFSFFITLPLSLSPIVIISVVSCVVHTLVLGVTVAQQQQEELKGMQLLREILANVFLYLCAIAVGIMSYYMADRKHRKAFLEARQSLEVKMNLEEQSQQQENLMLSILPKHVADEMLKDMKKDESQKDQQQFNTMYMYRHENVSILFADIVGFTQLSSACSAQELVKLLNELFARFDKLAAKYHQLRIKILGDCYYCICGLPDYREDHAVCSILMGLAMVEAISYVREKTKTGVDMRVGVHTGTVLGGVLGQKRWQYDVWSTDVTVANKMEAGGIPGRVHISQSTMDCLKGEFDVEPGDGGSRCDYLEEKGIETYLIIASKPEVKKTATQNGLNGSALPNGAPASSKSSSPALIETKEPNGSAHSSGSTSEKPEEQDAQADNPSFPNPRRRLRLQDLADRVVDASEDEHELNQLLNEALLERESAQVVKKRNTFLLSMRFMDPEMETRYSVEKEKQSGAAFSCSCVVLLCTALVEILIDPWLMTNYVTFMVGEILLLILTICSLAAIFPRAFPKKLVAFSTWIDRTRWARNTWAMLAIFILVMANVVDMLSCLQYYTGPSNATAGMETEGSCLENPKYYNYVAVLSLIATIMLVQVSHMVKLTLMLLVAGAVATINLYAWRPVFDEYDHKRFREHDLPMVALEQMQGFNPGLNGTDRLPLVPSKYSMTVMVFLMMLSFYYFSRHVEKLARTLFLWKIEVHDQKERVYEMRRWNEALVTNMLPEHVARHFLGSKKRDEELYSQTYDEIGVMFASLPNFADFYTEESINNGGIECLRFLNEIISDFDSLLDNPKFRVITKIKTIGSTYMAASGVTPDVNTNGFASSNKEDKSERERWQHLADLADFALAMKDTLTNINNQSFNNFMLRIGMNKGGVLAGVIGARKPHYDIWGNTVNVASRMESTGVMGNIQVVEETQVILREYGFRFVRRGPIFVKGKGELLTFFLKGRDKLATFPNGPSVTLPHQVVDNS
T1 sequence (P63092 whole entry Q227L partner): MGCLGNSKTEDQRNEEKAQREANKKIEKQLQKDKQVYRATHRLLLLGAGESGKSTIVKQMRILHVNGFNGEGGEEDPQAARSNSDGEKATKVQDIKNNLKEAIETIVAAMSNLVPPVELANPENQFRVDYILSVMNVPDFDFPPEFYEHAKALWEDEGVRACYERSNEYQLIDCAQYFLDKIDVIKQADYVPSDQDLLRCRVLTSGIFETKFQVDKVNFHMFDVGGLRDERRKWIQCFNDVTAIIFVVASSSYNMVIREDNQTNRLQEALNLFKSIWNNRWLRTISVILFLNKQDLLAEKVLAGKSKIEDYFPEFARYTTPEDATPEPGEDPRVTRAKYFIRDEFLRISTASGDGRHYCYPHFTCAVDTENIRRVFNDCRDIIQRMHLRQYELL
How it was run: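 EC50 and IC50 values come from cAMP production, read with a Cisbio cAMP kit and converted via a standard curve. Assay mix held 1 mM ATP, 2 mM MgCl2, 3 mM creatine phosphate and 60 μg/ml creatine kinase in 50 mM MOPS pH 7.5, using transfected HEK293 membranes.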

mAC4 = biological target: T2, mAC4 (Homo sapiens, UniProt Q8NFM4); assay: AC assay, Gsα-stimulated mAC4 in membranes from transfected HEK293 cells; conditions: for activity [%] (100% = 300nM Gsα stimulation): mAC4
T2 construct: Human mAC genes were from GenScript and fitted with a C-terminal FLAG-tag; FLAG (C); made in house; host or cells: HEK293, permanently transfected; membrane preparation
T2 sequence (Q8NFM4 1-1077): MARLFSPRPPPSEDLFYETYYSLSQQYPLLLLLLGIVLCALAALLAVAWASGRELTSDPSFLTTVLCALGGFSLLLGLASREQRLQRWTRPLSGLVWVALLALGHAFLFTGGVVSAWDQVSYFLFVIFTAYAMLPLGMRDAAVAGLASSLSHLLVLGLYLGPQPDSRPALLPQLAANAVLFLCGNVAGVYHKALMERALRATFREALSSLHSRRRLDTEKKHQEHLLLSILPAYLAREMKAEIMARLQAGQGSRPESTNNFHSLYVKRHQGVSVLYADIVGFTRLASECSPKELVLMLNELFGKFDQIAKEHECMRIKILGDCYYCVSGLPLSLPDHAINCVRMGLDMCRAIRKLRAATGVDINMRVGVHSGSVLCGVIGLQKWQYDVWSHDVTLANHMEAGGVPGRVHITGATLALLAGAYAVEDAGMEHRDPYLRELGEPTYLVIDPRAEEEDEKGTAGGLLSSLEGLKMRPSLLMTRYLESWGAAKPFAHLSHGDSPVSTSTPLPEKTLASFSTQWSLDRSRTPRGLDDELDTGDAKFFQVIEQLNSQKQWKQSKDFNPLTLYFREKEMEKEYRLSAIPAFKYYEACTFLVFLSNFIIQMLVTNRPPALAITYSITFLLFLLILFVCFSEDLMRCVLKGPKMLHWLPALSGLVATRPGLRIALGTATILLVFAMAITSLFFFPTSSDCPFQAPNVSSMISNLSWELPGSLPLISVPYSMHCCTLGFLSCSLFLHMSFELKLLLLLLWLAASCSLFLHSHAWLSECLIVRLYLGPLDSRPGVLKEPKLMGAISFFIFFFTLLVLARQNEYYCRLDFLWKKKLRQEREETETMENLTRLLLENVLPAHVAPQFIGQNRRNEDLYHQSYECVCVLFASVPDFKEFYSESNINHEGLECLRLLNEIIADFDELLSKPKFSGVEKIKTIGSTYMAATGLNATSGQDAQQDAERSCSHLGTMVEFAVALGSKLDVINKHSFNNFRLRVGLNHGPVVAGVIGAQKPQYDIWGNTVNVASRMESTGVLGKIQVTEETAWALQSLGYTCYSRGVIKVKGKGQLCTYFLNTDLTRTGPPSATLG
How it was run: (§1)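 Human AC, FLAG-tagged, stably expressed in HEK293; membranes used as enzyme. 1 mM ATP, 2 mM MgCl2, ATP regeneration, MOPS pH 7.5; cAMP kit readout.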

mAC5 = biological target: T3, mAC5 (Homo sapiens, UniProt O95622); assay: AC assay, Gsα-stimulated mAC5 in membranes from transfected HEK293 cells; conditions: for activity [%] (100% = 300nM Gsα stimulation): mAC5
T3 construct: Human mAC genes were from GenScript and fitted with a C-terminal FLAG-tag; FLAG (C); made in house; host or cells: HEK293, permanently transfected; membrane preparation
T3 sequence (O95622 whole entry): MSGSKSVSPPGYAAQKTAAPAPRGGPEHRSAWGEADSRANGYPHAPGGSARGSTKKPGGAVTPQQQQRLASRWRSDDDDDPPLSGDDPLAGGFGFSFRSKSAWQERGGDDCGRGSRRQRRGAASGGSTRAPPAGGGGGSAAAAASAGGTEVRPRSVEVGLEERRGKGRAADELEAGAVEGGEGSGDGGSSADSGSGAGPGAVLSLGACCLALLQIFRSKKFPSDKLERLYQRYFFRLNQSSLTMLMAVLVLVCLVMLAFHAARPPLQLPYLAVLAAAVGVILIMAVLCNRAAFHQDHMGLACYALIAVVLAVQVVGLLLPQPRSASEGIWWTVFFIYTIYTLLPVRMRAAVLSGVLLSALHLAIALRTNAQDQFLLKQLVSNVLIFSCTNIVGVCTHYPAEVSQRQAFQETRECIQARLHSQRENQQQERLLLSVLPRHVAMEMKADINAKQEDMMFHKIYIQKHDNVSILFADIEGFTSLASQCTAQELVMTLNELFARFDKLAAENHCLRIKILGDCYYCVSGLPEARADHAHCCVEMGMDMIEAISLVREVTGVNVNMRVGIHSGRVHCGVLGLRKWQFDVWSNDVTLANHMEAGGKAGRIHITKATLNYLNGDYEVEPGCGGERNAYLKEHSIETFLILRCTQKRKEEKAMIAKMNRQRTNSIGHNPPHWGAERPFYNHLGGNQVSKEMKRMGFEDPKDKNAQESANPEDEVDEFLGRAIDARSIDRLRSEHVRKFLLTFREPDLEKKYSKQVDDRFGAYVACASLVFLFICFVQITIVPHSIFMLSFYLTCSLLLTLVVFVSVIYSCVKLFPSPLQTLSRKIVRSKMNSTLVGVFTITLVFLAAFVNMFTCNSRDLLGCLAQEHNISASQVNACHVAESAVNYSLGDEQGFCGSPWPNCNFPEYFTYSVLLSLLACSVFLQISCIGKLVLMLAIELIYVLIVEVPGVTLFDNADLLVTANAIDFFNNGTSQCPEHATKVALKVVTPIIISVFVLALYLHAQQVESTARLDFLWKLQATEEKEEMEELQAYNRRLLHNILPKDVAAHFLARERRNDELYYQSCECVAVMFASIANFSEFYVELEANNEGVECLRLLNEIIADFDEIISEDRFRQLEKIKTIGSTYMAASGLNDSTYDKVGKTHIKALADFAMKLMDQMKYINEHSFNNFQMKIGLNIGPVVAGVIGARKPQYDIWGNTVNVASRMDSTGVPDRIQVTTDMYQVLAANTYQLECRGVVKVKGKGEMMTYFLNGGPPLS
How it was run: as §1

mAC1 = biological target: T4, mAC1 (Homo sapiens, UniProt Q08828); assay: AC assay, Gsα-stimulated mAC1 in membranes from transfected HEK293 cells; conditions: for activity [%] (100% = 300nM Gsα stimulation): mAC1
T4 construct: Human mAC genes were from GenScript and fitted with a C-terminal FLAG-tag; FLAG (C); made in house; host or cells: HEK293, permanently transfected; membrane preparation
T4 sequence (Q08828 whole entry): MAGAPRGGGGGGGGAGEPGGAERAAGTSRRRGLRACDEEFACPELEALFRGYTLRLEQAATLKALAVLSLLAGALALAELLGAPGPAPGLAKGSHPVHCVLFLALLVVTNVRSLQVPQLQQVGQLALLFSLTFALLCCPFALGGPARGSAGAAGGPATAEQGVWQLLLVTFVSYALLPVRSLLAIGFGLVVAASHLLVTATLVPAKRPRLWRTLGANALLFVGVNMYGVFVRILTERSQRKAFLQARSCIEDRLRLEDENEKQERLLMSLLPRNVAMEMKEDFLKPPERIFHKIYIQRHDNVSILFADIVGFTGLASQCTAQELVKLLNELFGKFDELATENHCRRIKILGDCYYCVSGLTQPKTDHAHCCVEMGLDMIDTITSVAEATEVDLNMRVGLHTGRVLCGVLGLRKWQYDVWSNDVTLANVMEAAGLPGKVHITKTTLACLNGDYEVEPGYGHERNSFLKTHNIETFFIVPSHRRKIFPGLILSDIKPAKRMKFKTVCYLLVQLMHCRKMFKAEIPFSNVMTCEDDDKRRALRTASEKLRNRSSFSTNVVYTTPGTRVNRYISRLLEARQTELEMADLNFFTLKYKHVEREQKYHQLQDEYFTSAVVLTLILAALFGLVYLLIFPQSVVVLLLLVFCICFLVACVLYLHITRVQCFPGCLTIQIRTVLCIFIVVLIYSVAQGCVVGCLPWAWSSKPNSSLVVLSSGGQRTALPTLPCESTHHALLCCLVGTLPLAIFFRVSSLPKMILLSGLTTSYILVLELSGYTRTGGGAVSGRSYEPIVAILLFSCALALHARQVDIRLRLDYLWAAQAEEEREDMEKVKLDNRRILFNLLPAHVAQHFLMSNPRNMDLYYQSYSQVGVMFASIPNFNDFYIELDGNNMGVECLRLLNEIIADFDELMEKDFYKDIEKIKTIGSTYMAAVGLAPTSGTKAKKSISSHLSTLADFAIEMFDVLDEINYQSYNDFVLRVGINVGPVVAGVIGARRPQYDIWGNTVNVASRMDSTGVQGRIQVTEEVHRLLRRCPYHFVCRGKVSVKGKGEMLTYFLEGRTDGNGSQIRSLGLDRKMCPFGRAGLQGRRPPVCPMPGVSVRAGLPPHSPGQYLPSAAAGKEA
How it was run: as §1

[1] = 100µM Anandamide concentration, Figure 9 D

CCCCC/C=C\C/C=C\C/C=C\C/C=C\CCCC(=O)NCCO [Anandamide, arachidonoylethanolamide]
activity [%] (100% = 300nM Gsα stimulation) (mAC3; [1]): 165% | activity [%] (100% = 300nM Gsα stimulation) (mAC3; Anandamide 0.1 µM): 100% | activity [%] (100% = 300nM Gsα stimulation) (mAC3; Anandamide 1 µM): 87% and 101% and 117% and 100% and 94% and 127% and 77% | activity [%] (100% = 300nM Gsα stimulation) (mAC3; Anandamide 10 µM): 105% and 80% and 130% and 120% and 88% and 111% and 112% and 137% | activity [%] (100% = 300nM Gsα stimulation) (mAC3; Anandamide 30 µM): 96% and 65% and 85% and 72% and 94% and 68% and 100% and 101% | Effect of anandamide on Gsα-stimulated mAC4 (mAC4; concentration–response, higher concentrations, in words): distinctly not | activity [%] (100% = 300nM Gsα stimulation) (mAC4; Anandamide 0.1 µM): 100% | activity [%] (100% = 300nM Gsα stimulation) (mAC4; Anandamide 3 µM): 86% and 113% and 96% and 121% and 82% | activity [%] (100% = 300nM Gsα stimulation) (mAC4; Anandamide 30 µM): 107% | IC50 (mAC5; attenuation of 300 nM Gsα-stimulated activity): 42 µM | activity [%] (100% = 300nM Gsα stimulation) (mAC5; [1]): 55% and 58% and 70% and 40% and 56% and 45% and 65% and 60% | activity [%] (100% = 300nM Gsα stimulation) (mAC5; Anandamide 0.1 µM): 100% | activity [%] (100% = 300nM Gsα stimulation) (mAC5; Anandamide 0.5 µM): 96% and 115% and 93% and 114% and 127% | activity [%] (100% = 300nM Gsα stimulation) (mAC5; Anandamide 3 µM): 122% and 77% | activity [%] (100% = 300nM Gsα stimulation) (mAC5; Anandamide 8 µM): 101% | activity [%] (100% = 300nM Gsα stimulation) (mAC5; Anandamide 10 µM): 99% | activity [%] (100% = 300nM Gsα stimulation) (mAC5; Anandamide 35 µM): 78% and 77% and 119% | activity [%] (100% = 300nM Gsα stimulation) (mAC5; Anandamide 40 µM): 58% and 74% | activity [%] (100% = 300nM Gsα stimulation) (mAC5; Anandamide 80 µM): 47% | IC50 (mAC1): 29 µM | activity [%] (100% = 300nM Gsα stimulation) (mAC1; Anandamide 0.1 µM): 100% | activity [%] (100% = 300nM Gsα stimulation) (mAC1; Anandamide 1 µM): 81% and 83% and 116% and 100% and 88% | activity [%] (100% = 300nM Gsα stimulation) (mAC1; Anandamide 3 µM): 98% and 83% and 114% and 101% and 97% | activity [%] (100% = 300nM Gsα stimulation) (mAC1; Anandamide 10 µM): 92% and 80% and 101% and 94% and 81% | activity [%] (100% = 300nM Gsα stimulation) (mAC1; Anandamide 30 µM): 41% and 63% and 74% and 78% and 71% | activity [%] (100% = 300nM Gsα stimulation) (mAC1; Anandamide 60 µM): 39% and 40% and 53% and 59% and 57%
